Measured values reported in patent publication US20260232597A1, “PHARMACEUTICAL COMPOSITION OF TRAMETINIB AND PROCESS OF PREPARATION THEREOF” (ALEMBIC PHARMACEUTICALS LIMITED, priority 2023, published 2026).
In brackets after ≈: the same amount, converted by molar mass.

Assays:
[1] = Dissolution studies for Example 2 (TA0 to TA14); format: physicochemical; details: 4.5 Acetate Buffer + 0.75% SLS, Type II, 500 mL, 60 RPM
[2] = Saturation solubility of drug substance in different dissolution media (incubator shaker, 24 hrs, HPLC); format: physicochemical; details: 37° C.; for solubility at 24 h: thermodynamic from solid
Method: Solubility study of drug substance was carried out in different dissolution media. The saturated solutions of drug substance were prepared in the recommended dissolution media. Initial pH of the saturated solutions was noted. Then the solutions were allowed to shake for 24 hours in the incubator shaker at 150 RPM. The temperature was kept around 37° C.±0.5° C. After 24 hours of shaking, pH of saturated solutions was noted. Further dilutions of these solutions were made as per the standard concentration. Analysis was carried out using HPLC technique. The sample was prepared in triplicates for saturation solubility determination.

[3] = cited from earlier work
[4] = as disclosed in US'304 patent; cited from earlier work
[5] = pH 4.5 Acetate Buffer + 0.75% SDS
[6] = pH 6.8 Phosphate Buffer + 0.75% SDS
[7] = pH 7.0 Phosphate Buffer + 0.75% SDS

CC(=O)Nc1cccc(-n2c(=O)n(C3CC3)c(=O)c3c(Nc4ccc(I)cc4F)n(C)c(=O)c(C)c32)c1 [Trametinib, N-(3-{3-Cyclopropyl-5-[(2-fluoro-4-iodophenyl)amino]-6,8-dimethyl-2,4,7-trioxo-3,4,6,7-tetrahydropyrido[4,3-d]pyrimidin-1 (2H)-yl}phenyl) acetamide]
% DR ([1]; 5 mins): 9% | % DR ([1]; 10 mins): 11% | % DR ([1]; 15 mins): 12% | % DR ([1]; 20 mins): 13% | % DR ([1]; 30 mins): 14% | % DR ([1]; 45 mins): 16% | % DR ([1]; 60 mins): 17% | % DR ([1]; 90 mins): 19% | % DR ([1]; 120 mins): 21% | Solubility mg/250 mL ([2]; 0.1N HCl + 0.75% SDS): 17 mg/250 mL | Solubility mg/500 mL ([2]; 0.1N HCl + 0.75% SDS): 33 mg/500 mL | Solubility mg/900 mL ([2]; 0.1N HCl + 0.75% SDS): 60 mg/900 mL | Solubility mg/250 mL ([2]; 0.1N HCl): 4.2 mg/250 mL | Solubility mg/500 mL ([2]; 0.1N HCl): 8 mg/500 mL | Solubility mg/900 mL ([2]; 0.1N HCl): 15 mg/900 mL | solubility at 24 h ([2]; aqueous buffer, pH 4.5 Acetate Buffer): 10 µg/mL (≈ 16.2 µM) | solubility at 24 h ([2]; aqueous buffer, pH 6.8 Phosphate Buffer): 20 µg/mL (≈ 32.5 µM) | solubility at 24 h ([2]; aqueous with cosolvent or surfactant or cyclodextrin, 0.1N HCl + 0.75% SDS): 70 µg/mL | solubility at 24 h ([2]; aqueous with cosolvent or surfactant or cyclodextrin, pH 4.5 Acetate Buffer + 0.75% SDS): 100 µg/mL | solubility at 24 h ([2]; aqueous with cosolvent or surfactant or cyclodextrin, pH 6.8 Phosphate Buffer + 0.75% SDS): 10 µg/mL | solubility at 24 h ([2]; aqueous with cosolvent or surfactant or cyclodextrin, pH 7.0 Phosphate Buffer + 0.75% SDS): 10 µg/mL | Solubility mg/250 mL [2, 5]: 24 mg/250 mL | Solubility mg/500 mL [2, 5]: 48 mg/500 mL | Solubility mg/900 mL [2, 5]: 87 mg/900 mL | Solubility mg/250 mL ([2]; pH 4.5 Acetate Buffer): 2.5 mg/250 mL | Solubility mg/500 mL ([2]; pH 4.5 Acetate Buffer): 5 mg/500 mL | Solubility mg/900 mL ([2]; pH 4.5 Acetate Buffer): 9 mg/900 mL | Solubility mg/250 mL [2, 6]: 3 mg/250 mL | Solubility mg/500 mL [2, 6]: 5 mg/500 mL | Solubility mg/900 mL [2, 6]: 9 mg/900 mL | Solubility mg/250 mL ([2]; pH 6.8 Phosphate Buffer): 4.2 mg/250 mL | Solubility mg/500 mL ([2]; pH 6.8 Phosphate Buffer): 8 mg/500 mL | Solubility mg/900 mL ([2]; pH 6.8 Phosphate Buffer): 15 mg/900 mL | Solubility mg/250 mL [2, 7]: 3 mg/250 mL | Solubility mg/500 mL [2, 7]: 5 mg/500 mL | Solubility mg/900 mL [2, 7]: 9 mg/900 mL | Solubility mg/250 mL ([2]; pH 7.0 Phosphate Buffer): 0.0 mg/250 mL | Solubility mg/500 mL ([2]; pH 7.0 Phosphate Buffer): 0 mg/500 mL | Solubility mg/900 mL ([2]; pH 7.0 Phosphate Buffer): 0 mg/900 mL | solubility at 24 h ([2]; simulated gastric fluid, 0.1N HCl): 20 µg/mL (≈ 32.5 µM) | Solubility relative to dimethyl sulfoxide solvate ([3]; as disclosed in US'304 patent): much less soluble than dimethyl sulfoxide solvate of Trametinib | Exposure and absorption upon in vivo administration [4]: poor exposure and absorption

CC(=O)Nc1cccc(-n2c(=O)n(C3CC3)c(=O)c3c(Nc4ccc(I)cc4F)n(C)c(=O)c(C)c32)c1.CC(=O)O [TA2, Trametinib acetic acid solvate]
% DR ([1]; 5 mins): 2% | % DR ([1]; 10 mins): 3% | % DR ([1]; 15 mins): 5% | % DR ([1]; 20 mins): 7% | % DR ([1]; 30 mins): 9% | % DR ([1]; 45 mins): 13% | % DR ([1]; 60 mins): 16% | % DR ([1]; 90 mins): 23% | % DR ([1]; 120 mins): 29%

CC(=O)Nc1cccc(-n2c(=O)n(C3CC3)c(=O)c3c(Nc4ccc(I)cc4F)n(C)c(=O)c(C)c32)c1.C[S+](C)[O-] [Trametinib DMSO, Trametinib dimethyl sulfoxide]
% DR ([1]; 5 mins): 27% | % DR ([1]; 10 mins): 34% | % DR ([1]; 15 mins): 38% | % DR ([1]; 20 mins): 39% | % DR ([1]; 30 mins): 41% | % DR ([1]; 45 mins): 42% | % DR ([1]; 60 mins): 43% | % DR ([1]; 90 mins): 44% | % DR ([1]; 120 mins): 44% | Average solubility ([2]; 0.1N HCl + 0.75% SDS): 50 µg/mL | Solubility mg/250 mL ([2]; 0.1N HCl + 0.75% SDS): 11.7 mg/250 mL | Solubility mg/500 mL ([2]; 0.1N HCl + 0.75% SDS): 23 mg/500 mL | Solubility mg/900 mL ([2]; 0.1N HCl + 0.75% SDS): 42 mg/900 mL | Solubility mg/250 mL ([2]; 0.1N HCl): 0.8 mg/250 mL | Solubility mg/500 mL ([2]; 0.1N HCl): 2 mg/500 mL | Solubility mg/900 mL ([2]; 0.1N HCl): 3 mg/900 mL | Average solubility [2, 5]: 240 µg/mL | Solubility mg/250 mL [2, 5]: 60.0 mg/250 mL | Solubility mg/500 mL [2, 5]: 120 mg/500 mL | Solubility mg/900 mL [2, 5]: 216 mg/900 mL | Solubility mg/250 mL ([2]; pH 4.5 Acetate Buffer): 0.0 mg/250 mL | Solubility mg/500 mL ([2]; pH 4.5 Acetate Buffer): 0 mg/500 mL | Solubility mg/900 mL ([2]; pH 4.5 Acetate Buffer): 0 mg/900 mL | Average solubility [2, 6]: 70 µg/mL | Solubility mg/250 mL [2, 6]: 18.3 mg/250 mL | Solubility mg/500 mL [2, 6]: 37 mg/500 mL | Solubility mg/900 mL [2, 6]: 66 mg/900 mL | Solubility mg/250 mL ([2]; pH 6.8 Phosphate Buffer): 0.0 mg/250 mL | Solubility mg/500 mL ([2]; pH 6.8 Phosphate Buffer): 0 mg/500 mL | Solubility mg/900 mL ([2]; pH 6.8 Phosphate Buffer): 0 mg/900 mL | Average solubility [2, 7]: 70 µg/mL | Solubility mg/250 mL [2, 7]: 18.3 mg/250 mL | Solubility mg/500 mL [2, 7]: 37 mg/500 mL | Solubility mg/900 mL [2, 7]: 66 mg/900 mL | Solubility mg/250 mL ([2]; pH 7.0 Phosphate Buffer): 0.0 mg/250 mL | Solubility mg/500 mL ([2]; pH 7.0 Phosphate Buffer): 0 mg/500 mL | Solubility mg/900 mL ([2]; pH 7.0 Phosphate Buffer): 0 mg/900 mL | Solubility in aqueous media ([3]; pH range of 2 to 8): practically insoluble
